Common to all, as to type: physicochemical
A short description of data set [1]: Relative thermodynamic stability of crystalline forms. Conditions: forms A and B are enantiotropically related.
Data set [2] is described as follows: Gravimetric Vapor Sorption Study (GVS). Conditions: crystalline Form A prepared in Example 1.1.2. As to the method: The GVS study was run using a standard procedure. Samples were run on a Hiden IGASorp moisture sorption analyzer running CFRSorp software. Sample sizes were typically 10 mg. A moisture adsorption desorption isotherm was performed as outlined below. All samples were loaded/unloaded at typical room humidity and temperature (40% RH, 25° C.) and analyzed afterwards by XRPD. The standard isotherm run is a cycle starting at 40% RH→90%→Dry finishing at 35% RH at 25° C. and 10% RH intervals.

The nature of data set [3]: Karl Fisher water content determination. As to conditions: crystalline Form A prepared in Example 1.1.2; measured in duplicate. As to the method:
The study was done using a standard procedure. Water contents were measured on a Mettler Toledo DL39 Coulometer using Hydranal AG Oven reagent and an argon purge. Samples were introduced into the vessel as solids weighed out onto a platinum TGA pan which was connected to a subaseal via tweezers to avoid water ingress. Approximately 10 mg of sample was used per titration and each analysis was performed in duplicate. The water content of crystalline Compound (I) prepared in Example 1.1.2 was measured in duplicate and gave an average value of 0.1%.

Data set [4] in a line: Retention of crystalline form in final tablet (XRPD). Conditions: micronized, high shear wet granulation, compression, optional aqueous film coat. The method, then: The tablets in this example were prepared with an optional aqueous film coat. Preparation of the intra-granular component involved a high shear wet granulation to make granules to be used for further processing. All components used are conventional for the wet granulation process except for the sodium lauryl sulfate which was added as a bioenhancement agent to enhance the bioavailability of the drug substance. The crystalline Compound (I), form B, was used in a micronized form for bioenhancement, which means that the density of the drug substance is low making it difficult to handle and process. High shear wet granulation is used to produce dense material that is easier to process and make into tablets. The preparation of the extra-granular component was a compression step to make the tablets out of the granules and the added excipients. The excipients used are conventional to allow for the formation of the tablet. The crystalline form of Compound 1, Form B, was retained in the final tablet as confirmed by XRPD.

As to `COc1cc2c(Oc3ccc(NC(=O)C4(C(=O)Nc5ccc(F)cc5)CC4)cc3F)ccnc2cc1OCCCN1CCOCC1` [Form A, N-[3-fluoro-4-({6-(methyloxy)-7-[(3-morpholin-4-ylpropyl)oxy]quinolin-4-yl}oxy)phenyl]-N′-(4-fluorophenyl)cyclopropane-1,1-dicarboxamide], the “temperatures at which the form is believed to be the most thermodynamically stable form” value in data set [1] was “less than 75 °C”.
With `COc1cc2c(Oc3ccc(NC(=O)C4(C(=O)Nc5ccc(F)cc5)CC4)cc3F)ccnc2cc1OCCCN1CCOCC1` [Compound (I), N-[3-fluoro-4-({6-(methyloxy)-7-[(3-morpholin-4-ylpropyl)oxy]quinolin-4-yl}oxy)phenyl]-N′-(4-fluorophenyl)cyclopropane-1,1-dicarboxamide], in data set [2] (25° C. and 90% humidity), the “weight gain (GVS)” value was 0.5%. The “reanalysis of the sample by XRPD after GVS” value in data set [2] (after isotherm cycle 40% RH to 90% to dry to 35% RH at 25° C.) is on record as “no change in form”. Besides, in data set [3], the “water content (Karl Fisher), average value” is 0.1%.
For the molecule `COc1cc2c(Oc3ccc(NC(=O)C4(C(=O)Nc5ccc(F)cc5)CC4)cc3F)ccnc2cc1OCCCN1CCOCC1` [Form B, N-[3-fluoro-4-({6-(methyloxy)-7-[(3-morpholin-4-ylpropyl)oxy]quinolin-4-yl}oxy)phenyl]-N′-(4-fluorophenyl)cyclopropane-1,1-dicarboxamide], the “crystalline form in the final tablet as confirmed by XRPD” value in data set [4] is reported as “retained”. Further, the “temperatures at which the form is believed to be the most thermodynamically stable form” value in data set [1] is “greater than 75 °C”.

These data come from patent US8673912B2, “Crystalline Forms on N-[3-fluoro-4-({6-(methyloxy)-7-[(3-morpholin-4-ylpropyl)oxy]-quinolin-4-yl}oxy)phenyl]-N′-(4-fluorophenyl)cyclopropane-1,1-dicarboxamide” (Exelixis, Inc., priority 2009, dated 2014).
